“And” between values parts separate entries of the source, which are not always exact repeats. Equal entries are not always repeated. “Also recorded” adds a separate entry of the source. Structures can show the parent of a compound that is named as a salt.
How the values were obtained:
[1] = system: debrisoquin hydroxylase (sparteine monooxygenase); conditions: Inaba et al 1985, cited from earlier work
[2] = system: N-methyl-D-aspartate (NMDA) receptors; conditions: reportedly; cited from earlier work
[3] = system: neuronal calcium channels; conditions: reportedly; Carpenter et al 1988; cited from earlier work
sigma receptors = conditions: reportedly; cited from earlier work
debrisoquin hydroxylase [4] = experiment: Urinary DM/DR ratio with other antioxidants in specific patients (Example 5)
From the text: The second method involves sampling body fluids to compare the concentrations of DM and its primary metabolite, dextrorphan (DR). Although blood concentrations can be directly evaluated by drawing blood samples if desired, an easier and painless approach is to analyze urine samples. Blood or urine samples can be processed using methods such as high performance liquid chromatography (HPLC), as described in Example 5. […] The height of each peak, or the area under each peak, will indicate the quantity of each compound in the blood or urine sample. The heights of the DM and DR peaks are then divided, to determine the DM/DR ratio. The ratio which occurs after administration of a candidate antioxidant drug is compared to the DM/DR ratio in the same patient under control conditions (i.e., before administration of any antioxidant).
Preliminary Analysis of Other Antioxidants
To further evaluate that possibility, the Applicant arranged for chemical analyses of urine samples, using HPLC, in the labs of an independent investigator.

ALS patients = conditions: DM up to about 300 mg/day or higher; quinidine in prolonged QT interval; cited from earlier work
[5] = Plasma concentration of DM 10-12 hours after oral dosing, without and with quinidine (Examples 2 and 3); type: in vivo, human; conditions: effect of quinidine on plasma DM, words
Experimental: Plasma Concentrations of DM
Five patients were orally administered 120 mg of DM, with no co-administration of quinidine. Between 10 and 12 hours later, blood was sampled, blood plasma was isolated by centrifugation, and the plasma was analyzed to determine the DM concentration using the thebaine/HPLC method.
During a different week, the same patients were orally administered 60 mg of DM (half the control dosage) and 150 mg of quinidine. Between 10 and 12 hours later, blood was sampled and the plasma was analyzed for DM using thebaine/HPLC.
Additional studies were undertaken using a range of dosages of DM to establish a dose-response curve that correlates the quantity of DM orally administered to a patient with blood plasma concentrations 10 to 12 hours later (determined as described in Example 2). All patients received 150 mg of quinidine daily. The results of those studies are shown in graphical form in FIG. 2, with mean values shown as open squares and standard deviation ranges shown by vertical bars. The ascending line through the median values is a linear approximation; a curve based on more extensive data would probably show a horizontal asymptote.

debrisoquin hydroxylase [6] = experiment: Urinary DM/DR ratio after oral dextromethorphan without and with quinidine (Example 1); type: in vivo, human; conditions: 150 mg quinidine + 60 mg DM
Experimental: Since the research that led to this invention was done by a neurologist who was initially interested in finding out whether DM might be able to retard the progress of ALS, the initial studies were done on patients suffering from ALS, most of whom are adults more than 50 years old.
Six patients suffering from ALS were administered orally a single 60 mg dextromethorphan dose. Several hours later, a urine sample was collected, and the urine concentrations of dextromethorphan (DM) and dextrorphan (DR) were measured as described below to determine a DM/DR ratio. […] In a different week, 60 mg of DM and 150 mg of quinidine were orally administered to the same patients, and urinary DM and DR levels and DM/DR ratios were determined again.
DM and DR urinary levels without quinidine were determined by adding […] of thebaine as an internal standard to 1 mL of urine. To this was added 2000 units of beta-glucuronidase in 1 mL of acetate buffer (0.1M, pH 5.0). The mixture was incubated for 18 hours at 37° C. and then extracted by adding 1 mL of phosphate buffer (pH 12, 0.10M) and 7 mL of n-butanol/hexane (10:90 v/v). After mixing and centrifugation, the organic layer was transferred to a clean tube and acidified with 400 uL of 0.01 N HCL. 20 microliters (uL) of aqueous phase was injected into a high performance liquid chromatography (HPLC) system. The HPLC used a phenyl column equilibrated with a mobile phase of acetonitrile:water (51:49, v/v) containing 10 mM KHPO4, 10 mM hexane sulfonic acid, pH 4.0 (flow rate 1.2 mL/min). Detection of thebaine, dextromethorphan and dextrorphan was achieved by fluorescence (Kratos FS-980 Fluorometer) with an excitation wavelength of 228 nm and no emission cutoff filter.
A gas chromatograph/mass spectroscopy (gc/ms) assay was employed for determining dextromethorphan and dextrorphan levels in the presence of quinidine. Briefly, 0.5 ml urine samples were spiked with 500 nanograms (ng) of dimethacrine. The urine pH was adjusted to 5.0 with 0.1M acetate buffer (usually about 1.0 ml), and beta-glucuronidase was added (2000 units/ml urine). […]

liver cell preparations = conditions: Broly et al 1989; cited from earlier work

SMILES | In vitro activity in inhibiting debrisoquin hydroxylase [1] | other results
COCCc1ccc(OCC(O)CNC(C)C)cc1 (racemic) [metaprolol] | significant in vitro activity | 
CC[C@H]1[C@@H]2C[C@H]3[C@@H]4N(C)c5ccccc5[C@]45C[C@@H]([C@H]2[C@H]5O)N3[C@@H]1O [ajmaline] | significant in vitro activity; also recorded: relatively potent | 
CN1CC[C@@]23CCCC[C@@H]2[C@@H]1Cc1ccc(O)cc13 [dextrorphan] |  | Activity at NMDA receptors [2]: NMDA antagonists; Activity at neuronal calcium channels [3]: calcium channel antagonists; Activity at sigma receptors (sigma receptors): sigma agonists
O=c1[nH]c2ccccc2n1CCCN1CCC(n2c(=O)[nH]c3cc(Cl)ccc32)CC1 [domperidone] | significant in vitro activity | 
CNCCC(Oc1ccc(C(F)(F)F)cc1)c1ccccc1 (stereo not drawn) [fluoxetine] |  | Effect on DM concentrations in the blood / debrisoquin hydroxylase oxidative activity (debrisoquin hydroxylase [4]; ALS patient taking fluoxetine, research by the Applicant): can suppress the oxidative activity of the debrisoquin hydroxylase enzyme, albeit at a potency substantially below that of quinidine; also recorded: effective in increasing DM concentrations in the blood
O=C(CCCN1CCC(O)(c2ccc(Cl)cc2)CC1)c1ccc(F)cc1 [haloperidol] | significant in vitro activity; also recorded: relatively potent | 
CC(CCc1ccccc1)NCC(O)c1ccc(O)c(C(N)=O)c1 (stereo not drawn) [labetalol] | significant in vitro activity | 
CN1[C@@H](CC(=O)c2ccccc2)CCC[C@H]1C[C@H](O)c1ccccc1 [lobeline] | significant in vitro activity; also recorded: relatively potent | 
Cc1cccc(C)c1OCC(C)N (stereo not drawn) [mexiletine] | significant in vitro activity | 
CNCCC=C1c2ccccc2CCc2ccccc21 [nortriptyline] | significant in vitro activity | 
C=CCOc1ccccc1OCC(O)CNC(C)C (stereo not drawn) [oxprenolol] | significant in vitro activity | 
COc1ccc(Cc2nccc3cc(OC)c(OC)cc23)cc1OC [papaverine] | significant in vitro activity | 
NC(=O)C1(N2CCCCC2)CCN(CCCC(=O)c2ccc(F)cc2)CC1 [pipamperone] | significant in vitro activity; also recorded: relatively potent | 
CC(C)NCC(O)COc1cccc2ccccc12 (stereo not drawn) [propranolol] | significant in vitro activity | 
C=C[C@H]1C[N@@]2CC[C@H]1C[C@@H]2[C@@H](O)c1ccnc2ccc(OC)cc12 [quinidine] | most powerful of these inhibitors; also recorded: most potent inhibitor of the sparteine monooxygenase enzyme; also recorded: potent inhibitor of the debrisoquin hydroxylase enzyme | Adverse effects (general knowledge) (ALS patients): cardiac arrest (which can be fatal); DM plasma level, with or without quinidine [5]: major increase in the concentration of DM in the blood plasma; also recorded: pronounced effect in increasing and stabilizing the quantity of DM circulating in the blood; also recorded: highly effective in increasing DM concentrations; Ki ([1]; in vitro, read-out: Ki (Michaelis-Menton inhibition)): 60 nM; Increase of DM/DR ratio, all test subjects (debrisoquin hydroxylase [6]; all test subjects): at least 2 orders of magnitude; Increase of DM/DR ratio, usually (debrisoquin hydroxylase [6]; usual case): more than 3 orders of magnitude; DM oxidation / metabolism in liver cell preparations (liver cell preparations): suppresses DM oxidation in liver cell preparations
C=C[C@H]1C[N@@]2CC[C@H]1C[C@H]2[C@H](O)c1ccnc2ccc(OC)cc12 [quinine sulfate] |  | DM/DR ratio (antioxidant) (debrisoquin hydroxylase [4]; urine, HPLC, antioxidant in brackets, preliminary, one value per patient): 0.09 and 0.05
C=C[C@H]1C[N@@]2CC[C@H]1C[C@H]2[C@H](O)c1ccnc2ccc(OC)cc12 [quinine] | significant in vitro activity | 
CC(C)(C)NC[C@H](O)COc1nsnc1N1CCOCC1 [timolol] | significant in vitro activity | 
COC(=O)[C@@H]1[C@H]2C[C@H]3c4[nH]c5ccccc5c4CCN3C[C@@H]2CC[C@@H]1O [yohimbine] | significant in vitro activity; also recorded: relatively potent | 
